Test results from patent publication US20240148821A1, “PHARMACEUTICAL USE OF CYCLIC PEPTIDE COMPOUND” (CHUGAI SEIYAKU KABUSHIKI KAISHA, priority 2021, published 2024).
Numbered stars: 1 amine (or outer) side, 2 acyl side, 3 side chain; on linkers, the order of the positions; unused ones are H or OH. Bridge positions count the residues as written; N and C are the ends. Square brackets hold non-standard residues; d marks the D form. Peptide text beside a SMILES is read from it. * marks the point of attachment. hPhe(3-Cl-4-CF3) = N[C@@H](CCc1ccc(C(F)(F)F)c(Cl)c1)C(=O)O; NMePhe(4-CF3) = CN[C@@H](Cc1ccc(C(F)(F)F)cc1)C(=O)O; hPhe(4-CF3) = N[C@@H](CCc1ccc(C(F)(F)F)cc1)C(=O)O; NEtPhe(4-Me) = CCN[C@@H](Cc1ccc(C)cc1)C(=O)O; NMePhe(4-Cl) = CN[C@@H](Cc1ccc(Cl)cc1)C(=O)O; NMePhe(4-Me) = CN[C@@H](Cc1ccc(C)cc1)C(=O)O; NMeNle(6-CHF2) = CN[C@@H](CCCCC(F)F)C(=O)O; NMedβ3hAla = C[C@H](CC(=O)[*:2])N(C)[*:1]; X77 = O=C(CN(CCN1CCC(F)(F)CC1)[*:1])[*:2]; Phe(3-I) = N[C@@H](Cc1cccc(I)c1)C(=O)O; dαMeGly(allyl) = C=CC[C@@](C)(N)C(=O)O; Ala(cPent) = N[C@@H](CC1CCCC1)C(=O)O; Phe(2-F) = N[C@@H](Cc1ccccc1F)C(=O)O; NMe4Pal = CN[C@@H](Cc1ccncc1)C(=O)O; NMeCha = CN[C@@H](CC1CCCCC1)C(=O)O; Hyp = O=C(O)[C@@H]1C[C@@H](O)CN1; NMeChg = CN[C@H](C(=O)O)C1CCCCC1; NMeF = CN[C@@H](Cc1ccccc1)C(=O)O; NMeI = CC[C@H](C)[C@H](NC)C(=O)O; NMeD = CN[C@@H](CC(=O)O)C(=O)O; NMeL = CN[C@@H](CC(C)C)C(=O)O; NMeV = CN[C@H](C(=O)O)C(C)C; d(β3hA) = C[C@@H](N)CC(=O)O; NMeS = CN[C@@H](CO)C(=O)O; NMeA = CN[C@@H](C)C(=O)O; NMeAib = CNC(C)(C)C(=O)O; Piperidide = C1CCN(*)CC1; Ac5c = NC1(C(=O)O)CCCC1; Aze = O=C(O)[C@@H]1CCN1; Ac4c = NC1(C(=O)O)CCC1; Aib = CC(C)(N)C(=O)O; Sar = CNCC(=O)O

The molecules below were run on Human pancreatic cancer cell line AsPC-1 (G12D mutation Kras) (assay: AsPC-1 cell growth inhibition (AsPC-1 CGI)). Conditions: read-out: AsPC-1 cell growth inhibition, 50% growth inhibitory concentration (IC50 value); 96 hours, CellTiter-Glo, values classified in ranges.
Type: cell-based
Experimental: Test compounds were serially dilated with dimethyl sulfoxide, and 200 nL was then dispensed to a U-bottom 96-well plate using Labcyte Echo. […] The cell suspension was dispensed to a. plate containing a test compound at 100 μL per well and incubated at 37° C. in a 5% carbon dioxide gas incubator. 96 hours later, 80 μL of CellTiter-Glo (Promega) was added to each well and fluorescence was measured.
With `CC[C@H](C)[C@@H]1NC(=O)[C@H](CC(C)C)N(C)C(=O)C[C@@H](C(=O)N2CCCCC2)N(C)C(=O)[C@H](CC(C)C)NC(=O)[C@H](Cc2ccccc2)N(C)C(=O)[C@H](C)NC(=O)[C@H](Cc2cccc(I)c2)NC(=O)CN(C)C(=O)[C@H](Cc2ccc(C)cc2)N(C)C(=O)CN(C)C(=O)CN(C)C1=O` [Compound 619] ([NMeL]I[Sar][Sar][NMePhe(4-Me)][Sar][Phe(3-I)]A[NMeF]L[NMeD]-Piperidide; lactam N-11) the IC50 was greater than 500 nM.
With `CC[C@H](C)[C@@H]1NC(=O)[C@H](CC(C)C)N(C)C(=O)C[C@@H](C(=O)N2CCCCC2)N(C)C(=O)[C@H](C2CCCCC2)N(C)C(=O)C2(CCCC2)NC(=O)[C@@H]2CCCN2C(=O)[C@H](CCc2ccc(C(F)(F)F)c(Cl)c2)NC(=O)CN(C)C(=O)[C@H](COC)N(C)C(=O)CN(C)C(=O)CN(C)C1=O` [Compound 623] ([NMeL]I[Sar][Sar][NMeS](Me)[Sar][hPhe(3-Cl-4-CF3)]P[Ac5c][NMeChg][NMeD]-Piperidide; lactam N-11) the IC50 was greater than 500 nM.
Molecule `CCO[C@@H]1C[C@H]2C(=O)NC3(CCC3)C(=O)N(C)[C@@H]([C@@H](C)CC)C(=O)N(C)[C@H](C)CC(=O)N(C)[C@@H](CC(C)C)C(=O)N[C@@H]([C@@H](C)CC)C(=O)N(C)[C@@H](C)C(=O)N3CC[C@H]3C(=O)N(CC)[C@@H](Cc3ccc(C)cc3)C(=O)N(C)CC(=O)N[C@@H](CCc3ccc(C(F)(F)F)c(Cl)c3)C(=O)N2C1` [Compound 626] (cyclo([Ac4c][NMeI][NMedβ3hAla][NMeL]I[NMeA][Aze][NEtPhe(4-Me)][Sar][hPhe(3-Cl-4-CF3)][Hyp](Et))) has an IC50 of no more than 20 nM.
`CC(C)C[C@H]1C(=O)N[C@@H](CC2CCCC2)C(=O)N(C)CC(=O)N(C)CC(=O)N(C)[C@@H](CC2CCCCC2)C(=O)N(C)CC(=O)N[C@@H](CCc2ccc(C(F)(F)F)c(Cl)c2)C(=O)N2CCC[C@H]2C(=O)NC2(CCCC2)C(=O)N(C)[C@@H](C(C)C)C(=O)N(C)[C@H](C(=O)N2CCCCC2)CC(=O)N1C` [Compound 627] ([NMeL][Ala(cPent)][Sar][Sar][NMeCha][Sar][hPhe(3-Cl-4-CF3)]P[Ac5c][NMeV][NMeD]-Piperidide; lactam N-11) was tested, and the IC50 was greater than 500 nM.
Work on `CC[C@H](C)[C@@H]1NC(=O)[C@H](CC(C)C)N(C)C(=O)C[C@@H](C(=O)N2CCCCC2)N(C)C(=O)[C@H]([C@@H](C)CC)N(C)C(=O)C2(CCCC2)NC(=O)[C@@H]2CCCN2C(=O)[C@H](CCc2ccc(C(F)(F)F)c(Cl)c2)NC(=O)CN(C)C(=O)[C@H](Cc2ccc(C(F)(F)F)cc2)N(C)C(=O)[C@@H]2CCN2C(=O)[C@H](C)N(C)C1=O` [Compound 630] ([NMeL]I[NMeA][Aze][NMePhe(4-CF3)][Sar][hPhe(3-Cl-4-CF3)]P[Ac5c][NMeI][NMeD]-Piperidide; lactam N-11) yielded an IC50 of no more than 20 nM.
`CC[C@H](C)[C@@H]1NC(=O)[C@H](CC(C)C)N(C)C(=O)C[C@@H](C)NC(=O)[C@H](C(C)C)N(C)C(=O)C2(CCCC2)NC(=O)[C@@H]2CCCN2C(=O)[C@H](CCc2ccc(C(F)(F)F)c(Cl)c2)NC(=O)CN(C)C(=O)[C@H](CC2CCCCC2)N(C)C(=O)CN(C)C(=O)CN(CCN2CCC(F)(F)CC2)C1=O` [Compound 635] (cyclo([Ac5c][NMeV][d(β3hA)][NMeL]I[X77][Sar][NMeCha][Sar][hPhe(3-Cl-4-CF3)]P)) was tested, and the IC50 was greater than 500 nM.
`CC[C@H](C)[C@@H]1NC(=O)[C@H](COC)N(C)C(=O)C[C@@H](C(=O)N2CCCCC2)N(C)C(=O)[C@H](C(C)C)N(C)C(=O)C2(CCCC2)NC(=O)[C@@H]2CCCN2C(=O)[C@H](CCc2ccc(C(F)(F)F)c(Cl)c2)NC(=O)CN(C)C(=O)[C@H](CC2CCCCC2)N(C)C(=O)[C@@H]2CCN2C(=O)[C@H](C)N(C)C1=O` [Compound 636] ([NMeS](Me)I[NMeA][Aze][NMeCha][Sar][hPhe(3-Cl-4-CF3)]P[Ac5c][NMeV][NMeD]-Piperidide; lactam N-11) was tested, and the IC50 was greater than 500 nM.
With `CC[C@H](C)[C@@H]1NC(=O)[C@H](CC(C)C)N(C)C(=O)C[C@@H](C(=O)N2CCCCC2)N(C)C(=O)[C@H](CC(C)C)NC(=O)C(C)(C)N(C)C(=O)[C@H](Cc2ccccc2F)NC(=O)[C@H](Cc2cccc(I)c2)NC(=O)CN(C)C(=O)[C@H](Cc2ccc(C)cc2)N(C)C(=O)[C@@H]2CCN2C(=O)CN(C)C1=O` [Compound 638] ([NMeL]I[Sar][Aze][NMePhe(4-Me)][Sar][Phe(3-I)][Phe(2-F)][NMeAib]L[NMeD]-Piperidide; lactam N-11) the IC50 was greater than 500 nM.
For `CC[C@H](C)[C@@H]1NC(=O)[C@H](CC(C)C)N(C)C(=O)C[C@@H](C)NC(=O)[C@H](C(C)C)N(C)C(=O)C(C)(C)NC(=O)[C@@H]2CCCN2C(=O)[C@H](CCc2ccc(C(F)(F)F)c(Cl)c2)NC(=O)CN(C)C(=O)[C@H](CC2CCCCC2)N(C)C(=O)CN(C)C(=O)CN(C)C1=O` [Compound 641] (cyclo([Aib][NMeV][d(β3hA)][NMeL]I[Sar][Sar][NMeCha][Sar][hPhe(3-Cl-4-CF3)]P)), the IC50 was greater than 500 nM.
Work on `CC[C@H](C)[C@@H]1NC(=O)[C@H](C(C)C)N(C)C(=O)C[C@@H](C)NC(=O)[C@H](CC(C)C)N(C)C(=O)C2(CCCC2)NC(=O)[C@H](CC(C)C)N(C)C(=O)[C@H](CCc2ccc(C(F)(F)F)cc2)NC(=O)CN(C)C(=O)[C@H](Cc2ccc(Cl)cc2)N(C)C(=O)[C@@H]2CCN2C(=O)CN(C)C1=O` [Compound 645] (cyclo([Ac5c][NMeL][d(β3hA)][NMeV]I[Sar][Aze][NMePhe(4-Cl)][Sar][hPhe(4-CF3)][NMeL])) yielded an IC50 greater than 500 nM.
`CC[C@H](C)[C@@H]1NC(=O)[C@H](CC(C)C)N(C)C(=O)C[C@@H](C(=O)N2CCCCC2)N(C)C(=O)[C@H](CCCCC(F)F)N(C)C(=O)C2(CCCC2)NC(=O)[C@@H]2CCCN2C(=O)[C@H](CCc2ccc(C(F)(F)F)c(Cl)c2)NC(=O)CN(C)C(=O)[C@H](CC2CCCCC2)N(C)C(=O)CN(C)C(=O)CN(C)C1=O` [Compound 653] ([NMeL]I[Sar][Sar][NMeCha][Sar][hPhe(3-Cl-4-CF3)]P[Ac5c][NMeNle(6-CHF2)][NMeD]-Piperidide; lactam N-11) gave an IC50 greater than 500 nM.
Molecule `CC[C@H](C)[C@@H]1NC(=O)[C@H](CC(C)C)N(C)C(=O)C[C@@H](C(=O)N2CCCCC2)N(C)C(=O)[C@H](C2CCCCC2)N(C)C(=O)C2(CCCC2)NC(=O)[C@H](Cc2ccncc2)N(C)C(=O)[C@H](CCc2ccc(C(F)(F)F)c(Cl)c2)NC(=O)CN(C)C(=O)[C@H](CC2CCCCC2)N(C)C(=O)[C@@H]2CCN2C(=O)[C@H](C)N(C)C1=O` [Compound 656] ([NMeL]I[NMeA][Aze][NMeCha][Sar][hPhe(3-Cl-4-CF3)][NMe4Pal][Ac5c][NMeChg][NMeD]-Piperidide; lactam N-11) has an IC50 greater than 500 nM.
`CC[C@H](C)[C@@H]1NC(=O)[C@H](C)N(C)C(=O)C[C@@H](C)NC(=O)[C@H](CC(C)C)N(C)C(=O)C(C)(C)NC(=O)[C@@H]2CCCN2C(=O)[C@H](CCc2ccc(C(F)(F)F)cc2)NC(=O)CN(C)C(=O)[C@H](Cc2ccc(Cl)cc2)N(C)C(=O)CN(C)C(=O)CN(C)C1=O` [Compound 664] (cyclo([Aib][NMeL][d(β3hA)][NMeA]I[Sar][Sar][NMePhe(4-Cl)][Sar][hPhe(4-CF3)]P)) was tested, and the IC50 was greater than 500 nM.
`C=CC[C@@]1(C)NC(=O)[C@@H]2CCCN2C(=O)[C@H](CCc2ccc(C(F)(F)F)c(Cl)c2)NC(=O)CN(C)C(=O)[C@H](CC2CCCCC2)N(C)C(=O)CN(C)C(=O)CN(C)C(=O)[C@H]([C@@H](C)CC)NC(=O)[C@H](CC(C)C)N(C)C(=O)C[C@@H](C)NC(=O)[C@H](C(C)C)N(C)C1=O` [Compound 665] (cyclo(I[Sar][Sar][NMeCha][Sar][hPhe(3-Cl-4-CF3)]P[dαMeGly(allyl)][NMeV][d(β3hA)][NMeL])) showed an IC50 greater than 500 nM.
